In PMC9546084, “Effects of Unsuppressed Endogenous Insulin on Pharmacokinetics and/or Pharmacodynamics of Study Insulin in the Healthy: A Retrospective Study” (Clinical Pharmacology in Drug Development, 2022):

How the values were obtained:
[1] = PK corrected by C-peptide; cited from earlier work
Experimental: In studies in which specific assays for the tested insulin are lacking, C‐peptide was always used to correct endogenous insulin.[37], [38] Some researchers[39] still doubted the use of C‐peptide to correct endogenous insulin because some PK parameters were not consistent (eg, a peak of glargine in plasma occurring at 12 hours[40] differs from those observed in subjects with type 1 diabetes where the increase occurs between ≈3 and 6 hours after the first injection[41] and at steady state[42]). Owens[19] reported the exogenous insulin estimated from C‐peptide was nearly the same as what was true ...

[2] = pharmacokinetics of insulin aspart during the euglycemic clamp (UPLC-MS/MS); type: in vivo, healthy Chinese male volunteers; conditions: 0.2 IU/kg s.c., mean ± SD; for CIAsp,max (maximum plasma concentration of IAsp): UPLC-MS/MS
Experimental: (§1) From 3 days before the dosing day on, participants were instructed to abstain from drinking alcohol, smoking tobacco, engaging in strenuous exercise, and ingesting caffeine. Participants came to the research center at approximately 6:00 PM the day before drug administration to ensure an overnight fasting condition of 10 to 12 hours the next morning. Throughout the clamp, the subjects remained fasting and in a supine position. A 20‐gauge polyethylene cannula was inserted into an antecubital vein for infusion of 20% dextrose, and a second 18‐gauge catheter was inserted retrogradely into a wrist vein on the dorsum of the hand to draw blood. The hand for blood drawing was maintained continuously in a heated blanket at 55 to 65°C, allowing sampling of arterialized venous blood. After recording the basal blood glucose level (defined as the mean of the glucose measurement at −30, −20, and −10 minutes), the subjects received a 0.2 IU/kg dose of NovoRapid (Novo Nordisk, Bagsværd, Denmark) by subcutaneous injection into a lifted abdominal skin fold. Blood samples were obtained at the bedside for immediate determination of whole blood glucose concentrations every 5 minutes from 0 to 240 minutes and every 10 minutes from 240 to 480 minutes. During the manual euglycemic clamp procedure, the glucose infusion rate (GIR) was adjusted on the basis of the obtained glucose measurements to maintain euglycemia. A 4‐mL blood sample was collected at each of the following points for analysis of C‐peptide, human insulin, and IAsp levels: −30 and 0 minutes (before dosing) and 10, 20, 30, 40, 50, 60, 90, 120, 150, 180, 210, 240, 270, 300, 360, 420, and 480 minutes after dosing. The baselines for each of C‐peptide, human insulin, and IAsp were defined as the mean of the −30 and 0 minute (before dosing) measurements.
(§2) Whole blood glucose concentrations were tested with a glucose analyzer (Biosen C_line GP+, Neckar Healthcare, Co., Ltd., Magdeburg, Germany) using an automated glucose oxidase technique with a measuring range of 9 to 900 mg/dL and a high precision of 1.5%. Human insulin levels were determined using an ultrasensitive enzyme‐linked immunosorbent assay (ELISA) with monoclonal antibodies that have little or no cross‐reactivity to insulin analogs whose ranges of quantification were 0.0065 to 0.87 ng/mL for human insulin.[22] C‐peptide levels were analyzed using a solid‐phase 2‐site ELISA method based on the direct sandwich technique in which 2 monoclonal antibodies are directed against separate antigenic determinants on the C‐peptide molecule with a measuring range of 0.06 to 9 ng/mL, with an intra‐assay coefficient of variation of 2.87% to 4.50%.[23] IAsp concentrations were assessed by means of an ultra‐performance liquid chromatography–tandem mass spectrometry method, [25] at Covance Laboratories in Shanghai that had no detectable cross‐reactivity with human insulin. Solid‐phase extraction was performed. Liquid chromatography separation was achieved using an Acquity UPLC CSH C18+ column (50 × 2.1 × 1.7 μm; Waters Corp., Milford, Massachusetts). A 20‐μL injection with a 0.60 mL/min flow of water with 0.1% of acetic acid (solvent A) and acetonitrile with 0.1% of acetic acid (solvent B) was used. The gradient elution was as follows: the initial 17.5% B was increased to 29.5% over 3.0 minutes, 29.5% to 50.0% over 0.5 minutes, 50% to 98% over 0.5 minutes, remained at 98% for 1.5 minutes, and returned to initial conditions over 0.5 minute. A mass spectrometer used in the positive ionization mode (ESI+) was used for the analysis of the compounds. […] The cone voltage and collision energy were adjusted to maximize the intensity of the protonated ion and to optimize the signal of aspart insulin: m/z 1133.4→971.8 and for the internal standard bovine insulin 1123.5→963.8. The lower limit of quantification was 0.2 ng/mL, the inter‐ and intravariability were 7.0% and 7.9%, respectively. […]

[3] = manual euglycemic clamp, glucose infusion rate (PD) after subcutaneous insulin aspart; type: in vivo, healthy Chinese male volunteers; conditions: for GIRmax (maximum glucose infusion rate): 0.2 IU/kg NovoRapid s.c., 8-hour manual euglycemic clamp; for GIRmax (maximum glucose infusion rate) / tGIRmax (time of GIRmax) / AUCGIR,0-8h: mean ± SD; for GIR AUC from time 0.5 to 2 hours after correction for clamped glucose from 0.5 to 2 hours / AUCGIR,0-8h after correction for the overall clamped glucose / tGIRmax (time of GIRmax) / AUCGIR,0-8h: 0.2 IU/kg s.c.; for AUCGIR,0-8h after correction for the overall clamped glucose: analysis of variance with clamped glucose as covariate; for AUCGIR,0-8h: uncorrected
Experimental: as §1, §2

[4] = adverse reactions/events during clamp and follow-up; type: in vivo, healthy Chinese male volunteers; conditions: 33 healthy men; 0.2 IU/kg s.c.; clamp procedures and follow-up period
Description: Thirty‐three healthy male volunteers (22 in group A and 11 in group B) undergoing a manual euglycemic clamp study were enrolled in this study.

| Substance | time of peak of glargine in plasma [1] [h] | CIAsp,max (maximum plasma concentration of IAsp) ([2]; group A (n = 22)) [ng/mL] | AUCIAsp,0-8h ([2]; group A (n = 22)) [ng·min/mL] | time of CIAsp,max ([2]; group A (n = 22)) [min] | CIAsp,max (maximum plasma concentration of IAsp) ([2]; group B (n = 11)) [ng/mL] | AUCIAsp,0-8h ([2]; group B (n = 11)) [ng·min/mL] | time of CIAsp,max ([2]; group B (n = 11)) [min] | GIRmax (maximum glucose infusion rate) ([3]; group A ((CPpostdosing)max > CPbaseline, n = 22)) [mg/kg/min] | GIR AUC from time 0.5 to 2 hours after correction for clamped glucose from 0.5 to 2 hours ([3]; group A (n = 22)) [mg/kg] | AUCGIR,0-8h after correction for the overall clamped glucose ([3]; group A (n = 22)) [mg/kg] | tGIRmax (time of GIRmax) ([3]; group A (n = 22)) [min] | AUCGIR,0-8h ([3]; group A (n = 22)) [mg/kg] | GIRmax (maximum glucose infusion rate) ([3]; group B ((CPpostdosing)max ≤ CPbaseline, n = 11)) [mg/kg/min] | GIR AUC from time 0.5 to 2 hours after correction for clamped glucose from 0.5 to 2 hours ([3]; group B (n = 11)) [mg/kg] | AUCGIR,0-8h after correction for the overall clamped glucose ([3]; group B (n = 11)) [mg/kg] | tGIRmax (time of GIRmax) ([3]; group B (n = 11)) [min] | AUCGIR,0-8h ([3]; group B (n = 11)) [mg/kg] | adverse reaction after injection [4] |
| --- | --- | --- | --- | --- | --- | --- | --- | --- | --- | --- | --- | --- | --- | --- | --- | --- | --- | --- |
| glargine | 12 | – | – | – | – | – | – | – | – | – | – | – | – | – | – | – | – | – |
| insulin aspart [IAsp] | – | 4.72 ± 1.46 | 527 ± 97.1 | 44.8 ± 11.0 | 5.53 ± 1.61 | 543 ± 97.2 | 47.3 ± 11.0 | 8.46 ± 2.43 | 596 ± 38 | 1789 ± 107 | 111 ± 40.6 | 1815 ± 551 | 7.90 ± 1.68 | 520 ± 56 | 1380 ± 157 | 113 ± 33.9 | 1327 ± 306 | no adverse reaction in any subject |
